Data from patent publication US9107905B2 (Agency for Science, Technology and Research, priority 2006, dated 2015).
Read-outs that look alike come from different tables or passages of the source.

Experiments:
[1] = target: GST-LRR fusion (LRR domain of CaCdc35p) (Candida albicans, UniProt A0A1D8PR83); experiment: tryptophan fluorescence quenching of recombinant LRR domain; type: binding; details: for Kd: nonlinear regression of fluorescence quenching, read-out: equilibrium dissociation constant (Kd); for fluorescence quenching: result in words
Sequence of GST-LRR fusion (LRR domain of CaCdc35p) (A0A1D8PR83 entry or part of it): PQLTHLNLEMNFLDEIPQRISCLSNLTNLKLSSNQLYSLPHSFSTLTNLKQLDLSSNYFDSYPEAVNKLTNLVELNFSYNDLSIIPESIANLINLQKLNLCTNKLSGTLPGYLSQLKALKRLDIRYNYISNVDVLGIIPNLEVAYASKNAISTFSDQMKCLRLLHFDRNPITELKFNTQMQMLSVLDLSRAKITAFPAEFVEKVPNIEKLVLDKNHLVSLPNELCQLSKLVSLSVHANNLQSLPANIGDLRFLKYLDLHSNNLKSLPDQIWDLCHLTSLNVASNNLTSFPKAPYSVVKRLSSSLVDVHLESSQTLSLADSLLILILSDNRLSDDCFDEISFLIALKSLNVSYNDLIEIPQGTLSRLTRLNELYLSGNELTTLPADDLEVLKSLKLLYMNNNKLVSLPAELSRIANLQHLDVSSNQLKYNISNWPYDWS
From the text: Since specific binding of a molecule to a tryptophan-containing protein may cause concentration-dependent quenching; of tryptophan fluorescence, fluorescence spectroscopy was used to measure the intensity of tryptophan fluorescence of the recombinant LRR domains in the presence of different concentrations of MLADiQ. […] The fluorescence spectrum of GST was not affected by any of the compounds used.

[2] = system: C. albicans yeast cells; experiment: hyphal induction assay (germ tube formation, yeast-hypha switch); type: cell-based, Candida albicans; details: for EC50: read-out: I50 (hyphal induction); for hypha-inducing activity: result in words
[3] = system: GST-LRR fusion protein (LRR domain of CaCdc35p); experiment: circular dichroism (CD) spectroscopy of recombinant LRR domain; type: binding, Candida albicans
From the text: Next, the possibility that MLA 71Q may directly bind to the LRR domain of CaCdc35p was explored. The wild-type LRR domain and that of Irr9mu were expressed in E. coli as glutathione-S-transferase (GST) fusions and purified to high homogeneity. Then circular dichroism (CD) spectroscopy was used to detect possible direct interaction between the LRR domain and MLADIQ. CD is a reliable tool in detecting conformational changes in a protein as a result of ligand binding (Woody, R. W. (1995). Methods Enzymol. 246, 34-71).

[4] = synthetic compounds and reference inducer

Row | Compound | Kd [1] [µM] | fluorescence quenching [1] | shift of the ellipticity values of the CD spectra [3] | hypha-inducing activity [2] | EC50 [2, 4] [µM] | other results
1 | C[C@H](NC(=O)[C@@H](C)O[C@H]1[C@H](O)[C@@H](CO)OC(O)[C@@H]1N)C(=O)O (stereo partly drawn) | 1.67 ± 0.13 | lower levels of fluorescence quenching | weaker but consistent spectrum shift |  |  | EC50 ([2]; synthetic compounds): ~200 µM
2 | CC(=O)N[C@H]1C(O)O[C@H](CO)[C@@H](O)[C@@H]1O[C@H](C)C(=O)O (stereo partly drawn) [N-acetylmuramic acid, reference compound] |  |  |  | Neither muramic nor N-acetylmuramic acid was active |  | 
3 | CC(=O)N[C@H]1C(O)O[C@H](CO)[C@@H](O)[C@@H]1O (stereo partly drawn) [NAG, N-Acetylglucosamine, reference compound] | 6.8 ± 0.32 | lower levels of fluorescence quenching | weaker but consistent spectrum shift |  | ~3000 | 
4 | CC(=O)NC1C(O)OC(CO)C(O)C1OC(C)C(=O)NC(C)C(=O)O [NMLA, N-acetylmurmyl-L-alanine] |  |  |  |  | ~8000 | 
5 | CC(=O)NC1C(O)OC(CO)C(O)C1OC(C)C(=O)NC(C)C(=O)NC(CCC(=O)O)C(N)=O [NMLADiQ, N-acetylmuramyl-L-alanyl-D isoglutamine] | 5.26 ± 0.47 | lower levels of fluorescence quenching | weaker but consistent spectrum shift |  | ~6000 | concentration above which the activity started to drop significantly [2]: above 20 mM; highest germ tube formation induced ([2]; at increased concentrations): ≤ 60%; times less active than MLADiQ ([2]; from I50): 600 times
6 | O=C(CO)[C@@H](O)[C@H](O)[C@H](O)CO [fructose, reference compound] |  |  |  | none of these compounds was found to have appreciable hypha-inducing activity |  | 
7 | OCC(O)CO [glycerol, reference compound] |  |  |  | none of these compounds was found to have appreciable hypha-inducing activity |  | 
8 | CC(O)C(=O)O (stereo not drawn) [lactic acid, reference compound] |  |  |  | none of these compounds was found to have appreciable hypha-inducing activity |  | 
9 | C[C@@H](O[C@H]1[C@H](O)[C@@H](CO)OC(O)[C@@H]1N)C(=O)O (stereo partly drawn) [muramic, muramic acid, reference compound] |  |  |  | Neither muramic nor N-acetylmuramic acid was active |  | 
